Values of other authors as cited in US12285031B2, “Beverage with collagen and additional additives” (WELLDRINKS LTD, priority 2015, dated 2025).
Square brackets hold non-standard residues; d marks the D form. Peptide text beside a SMILES is read from it. Hyp = O=C(O)[C@@H]1C[C@@H](O)CN1

What was measured:
[1] = adult humans
dermal fibroblasts = conditions: in vitro

Compound	fraction of ingested Mn absorbed [1]	cell proliferation of dermal fibroblasts (dermal fibroblasts)	production of hyaluronic acid by dermal fibroblasts (dermal fibroblasts)
[Mn+2] [Mn, Manganese]	3-5%	–	–
O=C(O)CNC(=O)[C@@H]1C[C@@H](O)CN1 [Hyp-Gly, hydroxyprolyl-glycine] (H-[Hyp]-Gly-OH)	–	enhance cell proliferation	–
O=C(O)[C@@H]1C[C@@H](O)CN1C(=O)[C@@H]1CCCN1 [Pro-Hyp, prolyl-hydroxyproline] (H-Pro-[Hyp]-OH)	–	enhance cell proliferation	enhances
